# Patent US10154992B2, “Compounds and methods for treating HIV infection” (THE REGENTS OF THE UNIVERSITY OF CALIFORNIA, priority 2016, dated 2018)
# Read-outs that look alike come from different tables or passages of the source.
# Key:
# [1] = Aqueous solubility pH 7.4; assay type: physicochemical; settings: aqueous solution, pH 7.4, pH 7.4, aqueous buffer
# Text: We next evaluated analogs 2b, 2f, 4a, and 4e in a panel of standard in vitro ADME assays to assess drug-like properties and the potential for efficacy in animals.
# [2] = tested on: HIV RRE (Rev-dependent) reporter; assay: Rev reporter assay in 293T cells, p24 ELISA; assay type: cell-based; settings: Human immunodeficiency virus 1, HEK-293T, Table 2
# Method: Rev reporter assay. In the Rev reporter assay, 293T cells were transfected with an HIV RRE (Rev-dependent) reporter plus a pSV2 Rev expression plasmid (Hope, T. J., et al. (1990) Proc. Natl. Acad. Sci. USA 87, 7787-7791). Compounds were incubated with the cells for 48 hours and reporter activity was assessed by p24 ELISA. Leptomycin B, an inhibitor of the Crm1 pathway that inhibits Rev-dependent export, was included as a control. The cytotoxicity of each compound was determined in parallel via MTT-based cell viability assays.
# [3] = tested on: HIV-1 isolate NL4-3 deleted for Vpu; assay: Replication assay in Jurkat cells with Vpu-deleted virus; assay type: cell-based; settings: Human immunodeficiency virus 1, NL43, Jurkat, read-out: IC50 value for isolate NL4-3 deleted for Vpu
# Method: FIG. 10. In embodiments, HIV viruses that are defective or deleted for Vpu are resistant to the compounds described herein. Replication assays with HIV-1 isolate NL4-3 or NL4-3 deleted for Vpu in Jurkat cells. Replication spreading assays were performed with compound at doses ranging from 1 nM to 316 nM in triplicate. Supernatants were collected every 48-72 hours and p24 values were determined by ELISA. FIG. 10 corresponds to analog 4e with HIV-1 isolate NL4-3 in Jurkat cells and with HIV-1 isolate NL4-3 deleted for Vpu in Jurkat cells.
# Virus spreading assay. Jurkat (E6-1) cells (NIH AIDS Reagent Program) were cultured in RPMI media supplemented with 25 mM HEPES pH 7.4, 10% heat-inactivated fetal calf serum (Hyclone, Waltham Mass.), and 1% penicillin/streptomycin. 2.5×10^5 Jurkat cells were inoculated with 250 pg p24 in 250 μl media in a 96-well flat bottom polystyrene cell culture microplate. Input virus was removed after 18 hours via washing cells phosphate-buffered saline (PBS). Cells were resuspended in 250 μl of media containing compounds at the described concentrations. […] Viral replication was quantified using ELISA to quantify p24 viral capsid protein in the culture supernatant. […] Toxicity was monitored using the MTT cell viability assay (Mosmann, T. (1983). J Immunol Methods 65, 55-63). […]
# [4] = biological target: T1, Rev-RRE IIB interaction (Human immunodeficiency virus type 1 group M subtype B, UniProt P04608+P04618); assay type: cell-based, HIV
# T1 construct: with a fusion to HIV Rev (residues 3-70) was generated; expressed in transfected cells
# Method: A library of approximately 4500 carboxamide-containing compounds was assembled and tested in the reporter cell line at 30 μM. Reporter cells were plated in a white 96-well plate and compounds were added to the cells using a Biomek FX robotic liquid handler (Beckman Coulter). The cells were incubated with the compound for 48 hours then assayed for luciferase activity (Promega Bright Glo). The cytotoxicity of each compound was determined in parallel via MTT-based cell viability assays.
# (§1) Cells were counted and plated into white 384-well or 96-well cell-culture treated assay plates and compounds were added. After 48 hours, the cells were prepared for luminescence assays that were performed on a plate reader (Tecan Evolution or MD Analyst). The cytotoxicity of each compound was determined in parallel via MTT-based cell viability assays.
# as §1, with “Tat hybrid reporter assay. […] Previously characterized thienopyridines and diaminoacridine were used as controls. Cells” for “Cells”, “384-well” for “384-well or 96-well”, “lumincescence” for “luminescence”
# The RRE IIB-Rev screening cell line was plated in 384-well assay plates and compounds were added to the cells to a final concentration of 30 μM. Cells were prepared and assayed for luciferase activity. […] In parallel, MTT cell viability assays were performed to assess the toxicity of compounds and minimize the level of false positives.
# [5] = tested on: clinical isolates of HIV-1; assay: HIV-1 replication assay in PBMCs, p24 ELISA; assay type: cell-based
# Method: HIV-1 replication assay in PBMCs. Virus isolates were obtained from the NIH AIDS Reagent Program. Human PBMCs, seronegative for HIV and hepatitis B virus (Astarte Biologics, LLC) were stimulated in R-3 medium (RPMI 1640 medium with 25 mM HEPES and L-glutamine, 20% heat-inactivated fetal bovine serum, 1% penicillin/streptomycin, 201U/mL IL-2) with 5 µg/mL phytohemagglutinin (PHA-P) for 48 to 72 h. Stimulated PBMCs were resuspended and diluted in fresh R-3 medium and added to 96-well plates at 5×10^4 cells/well. The 50% tissue culture infective dose (TCID50) of each virus stock was measured by end-point dilution assay described by Reed and Muench (Reed, L. J., and Muench, H. (1938) American Journal of Hygiene 27, 493-497). Spinoculation (1,200×g, 2 hrs) was applied to improve the efficiency of infection.
# Cells were infected with 40 TCID50s of virus stock under spinoculation in the presence of different concentrations of test compounds (biological quintuplicate wells/concentration) and incubated at 37° C., 5% CO2 for 7 days. On day 4, half of the supernatant was removed and replaced with fresh R-3 medium containing the appropriate concentration of test compounds. On day 7, cell-free supernantant samples were collected for analysis of p24 antigen expression measured by ELISA described above. Antiviral activity was assessed by the inhibition of p24 expression (Reed, L. J., and Muench, H. (1938) American Journal of Hygiene 27, 493-497.
# [6] = tested on: HIV-1 isolate NL4-3; assay: Virus spreading / replication assay in Jurkat cells, p24 ELISA; assay type: cell-based
# Method: Virus spreading assay. Jurkat (E6-1) cells (NIH AIDS Reagent Program) were cultured in RPMI media supplemented with 25 mM HEPES pH 7.4, 10% heat-inactivated fetal calf serum (Hyclone, Waltham Mass.), and 1% penicillin/streptomycin. 2.5×10^5 Jurkat cells were inoculated with 250 pg p24 in 250 μl media in a 96-well flat bottom polystyrene cell culture microplate. Input virus was removed after 18 hours via washing cells phosphate-buffered saline (PBS). Cells were resuspended in 250 μl of media containing compounds at the described concentrations. Cells were incubated at 37° C., 5% CO2 and supernatant samples were removed every 48 hours and replaced with fresh media containing the compounds. Viral replication was quantified using ELISA to quantify p24 viral capsid protein in the culture supernatant. Mouse monoclonal and rabbit polyclonal α-p24 antibodies used in the ELISA were obtained from the NIH AIDS Reagent Program. Toxicity was monitored using the MTT cell viability assay (Mosmann, T. (1983). J Immunol Methods 65, 55-63).
# [7] = Human liver microsome stability; assay type: in vitro ADME; settings: human liver microsomes; read-out: HLM T1/2
# Text: The more lipophilic analogs 4a and 4e also appear more prone to oxidative metabolism in the presence of human liver microsomes. This is perhaps unsurprising given the presence of methoxyphenyl (4a) and benzylic methylene (4e) functions, both potential sites of oxidative metabolism.
# T1 sequence (P04608 whole entry, looked up, the tested form may be a part): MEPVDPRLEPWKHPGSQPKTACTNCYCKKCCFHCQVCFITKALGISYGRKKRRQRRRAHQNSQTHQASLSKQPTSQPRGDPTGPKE
# T1 sequence (P04618 whole entry, looked up, the tested form may be a part): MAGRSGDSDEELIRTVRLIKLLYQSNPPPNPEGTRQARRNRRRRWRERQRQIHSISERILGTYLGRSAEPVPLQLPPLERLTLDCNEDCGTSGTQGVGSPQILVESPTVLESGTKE
compound,measurement,setting,value
"NC(=O)c1cc2c(-c3ccc4c(c3)CCO4)cncc2s1 [Compound 4e, 4-(2,3-dihydro-1-benzofuran-5-yl)thieno[2,3-c]pyridine-2-carboxamide]",solubility,[1],0.28 µM
same,EC50,[2],100 to 500 nM
same,IC50,[3],150 nM
same,activity in the Tat-hybrid reporter assay,[4],low-nM potency
same,IC50,"[5]; Human immunodeficiency virus 1, BAL, CCR5, PBMC, viral isolate Ba-L, coreceptor CCR5",< 100 nM
same,IC50,"[5]; Human immunodeficiency virus 1, CCR5, PBMC, viral isolate 92HT593, coreceptor CXCR4, CCR5",< 100 nM
same,IC50,"[5]; Human immunodeficiency virus 1, CCR5, PBMC, viral isolate 92TH014, coreceptor CCR5",< 100 nM
same,IC50,"[5]; Human immunodeficiency virus 1, CCR5, PBMC, viral isolate 93BR021, coreceptor CCR5",< 100 nM
same,IC50,"[5]; Human immunodeficiency virus 1, CCR5, PBMC, viral isolate 93BR028, coreceptor CCR5",< 100 nM
same,IC50,"[5]; Human immunodeficiency virus 1, PBMC, PBMC, viral isolate 92HT599, coreceptor CXCR4",< 100 nM
same,IC50,"[5]; Human immunodeficiency virus 1, PBMC, PBMC, viral isolate 92UG005, coreceptor CXCR4",< 100 nM
same,IC50,"[5]; Human immunodeficiency virus 1, PBMC, PBMC, viral isolate LAI, coreceptor CXCR4",100 to 500 nM
same,IC50,"[6]; Human immunodeficiency virus 1, NL43, Jurkat, FIG. 17, first pair of values, read-out: IC50 NL4-3 control",6.2 nM
same,IC50,"[6]; Human immunodeficiency virus 1, NL43, Jurkat, FIG. 17, second pair of values ('Notably'), read-out: IC50 control",25.9 nM
same,IC50,"[6]; Human immunodeficiency virus 1, NL43, Jurkat, Table 2, NL4-3, read-out: Jurkat HIV-1 replication assay",< 100 nM
same,IC50,"[6]; Human immunodeficiency virus 1, NL43, Jurkat, read-out: IC50 in the HIV replication assay",4 nM
same,IC50,"[6]; Human immunodeficiency virus 1, NL43, Jurkat cells, wild type virus, Vpu experiment (FIG. 10), read-out: IC50 value for isolate NL4-3",5 nM
same,half-life,[7],18 min
